Data as given in US20140094446A1, “Cyclic Amino Acids for the Treatment of Pain” (Therexcell Pharma Inc., priority 2008, published 2014).
Entries after “also recorded” stand apart in the source; their conditions may differ. Marks after values point to notes of the source that are not given here.

Key:
mice = assay: Sedation observed during the formalin foot test, intrathecal application
Procedure: At the same time as the analgesia was accessed, the sedation effects of ACBC were determined in the acute and chronic peripheral pain formalin foot model. […] The mice were monitored for 40 min for sedation. aCSF and morphine controls were also tested. The presence or absence of sedation was determined by an observer blinded to the treatment based on degree of spontaneous activity, posture and response to normal stimuli.

formalin foot mice [1] = assay: Formalin foot acute and chronic peripheral pain model, subcutaneous injection, up and down method; assay type: in vivo; conditions: Mus musculus, sc; subcutaneously, 5 minutes prior to formalin; up and down method of Dixon and Mood; block = 60% decrease of cumulated licking; read-out: ED50 for the reduction of paw licking by 60%
Procedure: This model involves pre-treatment with the test compound and injection of formalin (5% in 20 microliters) into the right hindpaw of mice. ACBC was injected subcutaneously 5 minutes prior to formalin injection. […] The up and down method of Dixon and Mood was used to establish the ED50.

formalin foot mice [2] = assay: Formalin foot acute and chronic peripheral pain model, intrathecal application
[3] = system: Neurons of the ventrobasal nuclei (thalamocortical neurons); assay: Current- and voltage-clamp recording of thalamic neurons in in vitro slice preparations; conditions: for equilibrium potential for the drug (intersection of drug and control I-V curves): voltage clamp, vs aCSF control curve
[4] = ACBC 5 μL of 250 μM 5 minutes before formalin 5% in 20 μL hindpaw, N=5, P<0.05 vs control
[5] = ACBC 1 μM, normalized to control 5 minutes prior to drug application, single neuron

Structure (SMILES) | behavioral toxicity (mice; mouse, in vivo) | sedation / gross appearance and behavior (in words) (mice; mouse, in vivo) | Number of mice with sedation (mice; mouse, in vivo, 40 min) | ED50 (formalin foot mice [1]) [mg/kg] | phase I licking (early phase, acute pain) (formalin foot mice [2]; [4]) | phase II licking (late phase, chronic pain) (formalin foot mice [2]; [4]) | cumulative paw licking (formalin foot mice [2]; ACBC 5 μL of 250 μM, monitored 40 minutes, p<0.05) | analgesia compared with morphine, acute and chronic phases (formalin foot mice [2]; formalin foot test) | slope of the I-V curve ([3]; ACBC 1 μM) | holding current 20 minutes after application ([3]; ACBC 1 μM, 3 min application, voltage-clamped at −60 mV, control 33 pA) [pA] | Input resistance (Ri) [3, 5] | Membrane potential (Vm) [3, 5] | tonic firing evoked by current pulse injection ([3]; ACBC 1 μM, ventrobasal thalamus, holding potential −60 mV) | equilibrium potential for the drug (intersection of drug and control I-V curves) ([3]; ACBC 1 μM) [mV] | persistence of induced outward current ([3]; voltage clamped neurons) | slope of the I-V curve ([3]; Glycine 150 μM) | equilibrium potential for the drug (intersection of drug and control I-V curves) ([3]; Glycine 150 μM) [mV] | sedation / gross appearance and behavior (in words) (mice; intrathecal, acute and chronic phase of formalin foot test) | Number of mice with sedation (mice; of 5 mice, intrathecal (ACBC 5 μL of 250 μM), monitored 40 min, blinded observer)
NC1(C(=O)O)CCC1 [ACBC, 1-amino-cyclobutane-1-carboxylic acid] | no observed behavioral toxicity | No sedation occurred | 0* | 94 | significantly reduced; also recorded: greatly reduces | significantly reduced; also recorded: greatly reduces | significantly reduced | equal to that produced by morphine | increased the slope of the I-V curve | 153 | increase in membrane input resistance; also recorded: decreased | decreased | depressed action potential firing; also recorded: depressed tonic firing | −92 | greater than 60 minutes | – | – | – | –
NCC(=O)O [Glycine, reference compound] | – | – | – | – | – | – | – | – | – | – | – | – | – | – | – | increased the slope of the I-V curve | −53 | – | –
CN1CC[C@]23c4c5ccc(O)c4O[C@H]2[C@@H](O)C=C[C@H]3[C@H]1C5 [Morphine, reference compound] | – | – | – | – | Morphine <control | – | – | – | – | – | – | – | – | – | – | – | – | nearly immobile | 5
